Source: ChEMBL document CHEMBL2062511, “Synthesis and anti-HIV activities of symmetrical dicarboxylate esters of dinucleoside reverse transcriptase inhibitors” (Bioorg Med Chem Lett, 2012)

Assays:
[1] = Therapeutic index, ratio of TC50 for human PBMC to EC50 for HIV-1 subtype B US/92/727 infected in PBMC; settings: uninfected and infected with HIV-1 subtype B US/92/727, read-out: TI
[2] = test system: Human immunodeficiency virus 1; test: Antiviral activity against HIV-1 subtype B US/92/727 infected in PBMC assessed as inhibition of viral replication after 7 days by XTT assay; type: functional, organism-based; settings: Human immunodeficiency virus 1, subtype B US/92/727, 168 h
[3] = Cytotoxicity against human PBMC; type: cell-based; settings: read-out: TC50 (the source's name)
[4] = test system: Human immunodeficiency virus 1; test: Ratio of FLT EC50 to compound EC50 for HIV-1 subtype 3B infected in CEM-SS cells; type: functional
[5] = Therapeutic index, ratio of TC50 for human CEM-SS cells to EC50 for HIV-1 subtype 3B infected in CEM-SS cells; type: cell-based; settings: uninfected and infected with HIV-1 subtype 3B, read-out: TI
[6] = test system: Human immunodeficiency virus 1; test: Antiviral activity against HIV-1 subtype 3B infected in CEM-SS cells assessed as inhibition of viral replication after 6 days by XTT assay; type: functional, organism-based; settings: Human immunodeficiency virus 1, subtype 3B, 144 h
[7] = Cytotoxicity against human CEM-SS cells by XTT method; type: cell-based; settings: read-out: TC50 (the source's name)
[8] = test system: Human immunodeficiency virus 1; test: Ratio of FLT EC50 to compound EC50 for HIV-1 subtype B US/92/727 infected in PBMC; type: functional
[9] = test system: Human immunodeficiency virus 1; test: Ratio of 3TC EC50 to compound EC50 for HIV-1 subtype 3B infected in CEM-SS cells; type: functional
[10] = test system: Human immunodeficiency virus 1; test: Ratio of 3TC EC50 to compound EC50 for HIV-1 subtype B US/92/727 infected in PBMC; type: functional
[11] = test system: Human immunodeficiency virus 1; test: Ratio of AZT EC50 to compound EC50 for HIV-1 subtype B US/92/727 infected in PBMC; type: functional

SMILES	selectivity ratio [1]	EC50 [2] [nM]	CC50 [3] [nM]	Ratio EC50 [4]	selectivity ratio [5]	EC50 [6] [nM]	CC50 [7] [nM]	Ratio EC50 [8]	Ratio EC50 [9]	Ratio EC50 [10]	Ratio EC50 [11]
Cc1cn([C@H]2C[C@H](F)[C@@H](COC(=O)CCCCCCCCC(=O)OC[C@H]3O[C@@H](n4cc(C)c(=O)[nH]c4=O)C[C@@H]3F)O2)c(=O)[nH]c1=O	> 1000	1	> 1000	5	> 250	4	> 1000	–	–	–	–
Cc1cn([C@H]2C[C@H](F)[C@@H](COC(=O)CCCCCCCCCCC(=O)OC[C@H]3O[C@@H](n4cc(C)c(=O)[nH]c4=O)C[C@@H]3F)O2)c(=O)[nH]c1=O	> 1030	0.97	> 1000	5	> 250	4	> 1000	2	–	–	–
Cc1cn([C@H]2C[C@H](F)[C@@H](COC(=O)CCCCCCCCCCCCC(=O)OC[C@H]3O[C@@H](n4cc(C)c(=O)[nH]c4=O)C[C@@H]3F)O2)c(=O)[nH]c1=O	> 1320	0.76	> 1000	5	> 333	3	> 1000	2	–	–	–
Cc1cn([C@H]2C[C@H](N=[N+]=[N-])[C@@H](COC(=O)CCCCCCCCC(=O)OC[C@H]3O[C@@H](n4cc(C)c(=O)[nH]c4=O)C[C@@H]3N=[N+]=[N-])O2)c(=O)[nH]c1=O	> 250	4	> 1000	–	> 200	5	> 1000	–	–	–	–
Cc1cn([C@H]2C[C@H](N=[N+]=[N-])[C@@H](COC(=O)CCCCCCCCCCC(=O)OC[C@H]3O[C@@H](n4cc(C)c(=O)[nH]c4=O)C[C@@H]3N=[N+]=[N-])O2)c(=O)[nH]c1=O	> 500	2	> 1000	–	> 250	4	> 1000	–	–	–	–
Cc1cn([C@H]2C[C@H](N=[N+]=[N-])[C@@H](COC(=O)CCCCCCCCCCCCC(=O)OC[C@H]3O[C@@H](n4cc(C)c(=O)[nH]c4=O)C[C@@H]3N=[N+]=[N-])O2)c(=O)[nH]c1=O	> 333	3	> 1000	–	> 333	3	> 1000	–	–	–	–
Nc1ccn([C@@H]2CS[C@H](COC(=O)CCC(=O)OC[C@@H]3O[C@H](n4ccc(N)nc4=O)CS3)O2)c(=O)n1	> 7	150	> 1000	–	> 7.7	130	> 1000	–	–	–	–
Nc1ccn([C@@H]2CS[C@H](COC(=O)CCCCCCCCC(=O)OC[C@@H]3O[C@H](n4ccc(N)nc4=O)CS3)O2)c(=O)n1	> 17	60	> 1000	–	> 33	30	> 1000	–	1.5	1.5	–
Nc1ccn([C@@H]2CS[C@H](COC(=O)CCCCCCCCCCC(=O)OC[C@@H]3O[C@H](n4ccc(N)nc4=O)CS3)O2)c(=O)n1	> 50	20	> 1000	–	> 333	9	> 1000	–	–	–	–
Nc1ccn([C@@H]2CS[C@H](COC(=O)CCCCCCCCCCCCC(=O)OC[C@@H]3O[C@H](n4ccc(N)nc4=O)CS3)O2)c(=O)n1	> 33	30	> 1000	–	> 333	3	> 1000	–	3	3	–
Cc1cn([C@H]2C[C@H](F)[C@@H](CO)O2)c(=O)[nH]c1=O [ALOVUDINE]	> 250	2	> 500	4	> 25	20	> 500	–	–	–	45
Nc1ccn([C@@H]2CS[C@H](CO)O2)c(=O)n1 [LAMIVUDINE]	> 5.6	90	> 500	–	> 2.5	200	> 500	–	–	–	–
Cc1cn([C@H]2C[C@H](N=[N+]=[N-])[C@@H](CO)O2)c(=O)[nH]c1=O [ZIDOVUDINE]	> 125	8	> 1000	–	> 250	2	> 500	–	–	–	–
